In ChEMBL document CHEMBL4295262, “Evaluation of the utility of stem-cell derived cardiomyocytes for drug proarrhythmic potential” (2019):

What was measured:
Conditions in all cases: human, ipsc-cm
[1] = (§1) Electrical activity assay on cell lines treated with a given drug. DMSO was used as a vehicle and a control, unblinded dofetilide was used as a control.
[2] = as §1; type: ADME, cell-based
[3] = as §1; remark: listed apart in the source
[4] = as §1; type: cell-based; parameters: APDc: unit not given here
[5] = as §1; type: ADME, cell-based; parameters: FPDc: unit not given here
[6] = as §1; remark: listed apart in the source
[7] = 0.003 µM, concentration (um) 0.003 uM
[8] = 0.03 µM, concentration (um) 0.03 uM
[9] = 0.3 µM, concentration (um) 0.3 uM
[10] = 0.0009507 µM, concentration (um) 0.000950736 uM
[11] = 0.003004 µM, concentration (um) 0.00300433 uM
[12] = 0.009494 µM, concentration (um) 0.00949367 uM
[13] = 0.03169 µM, concentration (um) 0.0316912 uM
[14] = 0.1001 µM, concentration (um) 0.100144 uM
[15] = 0.3165 µM, concentration (um) 0.316456 uM

Compound: O=c1[nH]c2ccccc2n1CCCN1CCC(n2c(=O)[nH]c3cc(Cl)ccc32)CC1 [DOMPERIDONE]
- APDc ([1]; 0.003 µM): 72.4
- FPD measurement ([1]; 0.003 µM): 72.4 FPDc
- APDc ([1]; 0.03 µM): 67
- FPD measurement ([1]; 0.03 µM): 67 FPDc
- APDc ([1]; 0.3 µM): 78.3
- FPD measurement ([1]; 0.3 µM): 78.3 FPDc
- APDc ([1]; 3 µM): More Than Half The Wells Had A Quiescence Event Or Apdc Readings Of 0
- FPD measurement ([1]; 3 µM): More Than Half The Wells Had A Quiescence Event Or Apdc Readings Of 0
- FPD measurement [2, 7]: 47.3 FPDc
- FPDc [2, 7]: 6 Values Out Of 6 Were Excluded Due To Quiescence Or 0 Fpdc
- FPD measurement [2, 8]: 85.58 FPDc
- FPDc [2, 8]: 6 Values Out Of 6 Were Excluded Due To Quiescence Or 0 Fpdc
- FPD measurement [2, 9]: 42.56 FPDc
- FPDc [2, 9]: 6 Values Out Of 6 Were Excluded Due To Quiescence Or 0 Fpdc
- FPDc ([2]; 3 µM, concentration (um) 3 uM): 6 Values Out Of 6 Were Excluded Due To Quiescence Or 0 Fpdc
- FPDc ([3]; 0.003 µM): 73.87
- FPDc ([3]; 0.03 µM): 88.38
- FPDc ([3]; 0.3 µM): More Than Half The Wells Had A Quiescence Event Or Fpdc Readings Of 0
- FPD measurement ([3]; 3 µM): More Than Half The Wells Had A Quiescence Event Or Apdc Readings Of 0
- FPDc ([3]; 3 µM): More Than Half The Wells Had A Quiescence Event Or Fpdc Readings Of 0

Compound: O=c1[nH]c2ccccc2n1C1CCN(CCCC(c2ccc(F)cc2)c2ccc(F)cc2)CC1 [PIMOZIDE]
- APDc [4, 10]: 66.03
- FPD measurement [4, 10]: 66.03 FPDc
- APDc [4, 11]: 67.09
- FPD measurement [4, 11]: 67.09 FPDc
- APDc [4, 12]: 74.77
- FPD measurement [4, 12]: 74.77 FPDc
- APDc [4, 8]: 98.75
- FPD measurement [4, 8]: 98.75 FPDc
- FPDc [5, 10]: 18.43
- FPD measurement [5, 11]: 5 Values Out Of 5 Were Excluded Due To Quiescence Or 0 Apdc
- FPDc [5, 11]: 26.86
- FPDc [5, 12]: 37.06
- FPDc [5, 8]: 13.57
- FPD measurement ([6]; 0.0009507 µM): 1 Values Out Of 1 Were Excluded Due To Quiescence Or 0 Fpdc
- FPDc ([6]; 0.0009507 µM): 1 Values Out Of 1 Were Excluded Due To Quiescence Or 0 Fpdc
- FPD measurement ([6]; 0.003004 µM): 1 Values Out Of 1 Were Excluded Due To Quiescence Or 0 Fpdc
- FPDc ([6]; 0.003004 µM): 1 Values Out Of 1 Were Excluded Due To Quiescence Or 0 Fpdc
- FPD measurement ([6]; 0.009494 µM): 1 Values Out Of 1 Were Excluded Due To Quiescence Or 0 Fpdc
- FPDc ([6]; 0.009494 µM): 1 Values Out Of 1 Were Excluded Due To Quiescence Or 0 Fpdc
- FPD measurement ([6]; 0.03 µM): 1 Values Out Of 1 Were Excluded Due To Quiescence Or 0 Fpdc
- FPDc ([6]; 0.03 µM): 1 Values Out Of 1 Were Excluded Due To Quiescence Or 0 Fpdc
- FPD measurement [2, 10]: 46.31 FPDc
- FPDc [2, 10]: 6 Values Out Of 6 Were Excluded Due To Quiescence Or 0 Fpdc
- FPD measurement [2, 11]: 49.59 FPDc
- FPDc [2, 11]: 6 Values Out Of 6 Were Excluded Due To Quiescence Or 0 Fpdc
- FPD measurement [2, 12]: 61.97 FPDc
- FPDc [2, 12]: 6 Values Out Of 6 Were Excluded Due To Quiescence Or 0 Fpdc
- FPD measurement [2, 8]: 56.98 FPDc
- FPDc [2, 8]: 6 Values Out Of 6 Were Excluded Due To Quiescence Or 0 Fpdc

Compound: O=C(CCCN1CC=C(n2c(=O)[nH]c3ccccc32)CC1)c1ccc(F)cc1 [DROPERIDOL]
- APDc ([1]; 0.03169 µM): 57.78
- FPD measurement ([1]; 0.03169 µM): 57.78 FPDc
- APDc ([1]; 0.1001 µM): 53.48
- FPD measurement ([1]; 0.1001 µM): 53.48 FPDc
- APDc ([1]; 0.3165 µM): 58.08
- FPD measurement ([1]; 0.3165 µM): 58.08 FPDc
- APDc ([1]; 1 µM): 67.51
- FPD measurement ([1]; 1 µM): 67.51 FPDc
- FPD measurement ([6]; 0.03169 µM): 1 Values Out Of 1 Were Excluded Due To Quiescence Or 0 Fpdc
- FPDc ([6]; 0.03169 µM): 1 Values Out Of 1 Were Excluded Due To Quiescence Or 0 Fpdc
- FPD measurement ([6]; 0.1001 µM): 1 Values Out Of 1 Were Excluded Due To Quiescence Or 0 Fpdc
- FPDc ([6]; 0.1001 µM): 1 Values Out Of 1 Were Excluded Due To Quiescence Or 0 Fpdc
- FPD measurement ([6]; 0.3165 µM): 1 Values Out Of 1 Were Excluded Due To Quiescence Or 0 Fpdc
- FPDc ([6]; 0.3165 µM): 1 Values Out Of 1 Were Excluded Due To Quiescence Or 0 Fpdc
- FPD measurement ([6]; 1 µM): 1 Values Out Of 1 Were Excluded Due To Quiescence Or 0 Fpdc
- FPDc ([6]; 1 µM): 1 Values Out Of 1 Were Excluded Due To Quiescence Or 0 Fpdc
- FPD measurement [2, 13]: 60.21 FPDc
- FPDc [2, 13]: 6 Values Out Of 6 Were Excluded Due To Quiescence Or 0 Fpdc
- FPD measurement [2, 14]: 132.5 FPDc
- FPDc [2, 14]: 6 Values Out Of 6 Were Excluded Due To Quiescence Or 0 Fpdc
- FPD measurement [2, 15]: 151.8 FPDc
- FPDc [2, 15]: 6 Values Out Of 6 Were Excluded Due To Quiescence Or 0 Fpdc
- FPD measurement ([2]; 1 µM, concentration (um) 1 uM): 41.51 FPDc
- FPDc ([2]; 1 µM, concentration (um) 1 uM): 6 Values Out Of 6 Were Excluded Due To Quiescence Or 0 Fpdc
- FPDc ([3]; 0.03169 µM): 71.23
- FPDc ([3]; 0.1001 µM): 90.23
- FPDc ([3]; 0.3165 µM): 123.3
- FPDc ([3]; 1 µM): More Than Half The Wells Had A Quiescence Event Or Fpdc Readings Of 0
